Measurements taken from PubChem BioAssay AID2060889 (Molecular Pharmacology Branch, DTP, NCI, 2025).

Test system: LG0567-F671-PDC complex spheroids viability
Test: Anticancer human tumor LG0567-F671-PDC patient-derived lung adenocarcinoma cell line growth inhibition [RAS]
Settings: for IC50: curve of first compound; for viability, T/C: stronger effect = lower value
Outline: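 Multi-cell-type spheroids: tumor cells plus HUVEC endothelial cells and mesenchymal stem cells. RAS-pathway inhibitors were combined with targeted agents, each dosed in half-log steps down from clinical Cmax, or from 10 microM when Cmax was unknown.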
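Note: spheroids exposed to compound for seven days before readout.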
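Throughout, for IC50: luminescence signal used as a proxy for viable cells.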

`NC1c2ccccc2OC12CCN(c1cnc3c(N4CCCc5ncccc54)n[nH]c3n1)CC2` (centres undefined) + CCn1c(-c2cc(N3CCN(C)CC3)cnc2C(C)OC)c2c3cc(ccc31)-c1csc(n1)CC(NC(=O)C1CC1C)C(=O)N1CCCC(N1)C(=O)OCC(C)(C)C2 was tested. Which IC50 (second compound 0.000949 µM) did it give?
The IC50 was under 31.6 nM.

And the IC50 (second compound 0.003 µM)?
The IC50 was under 31.6 nM.

What about the IC50 (second compound 0.00949 µM) of the same compound?
Its IC50 is under 31.6 nM.

And the IC50 (second compound 0.03 µM)?
Its IC50 is under 31.6 nM.

What about the IC50 (second compound 0.0949 µM) of the same compound?
The IC50 was under 31.6 nM.

What about the IC50 (second compound 0.3 µM) of the same compound?
Its IC50 is under 31.6 nM.

And the viability, T/C (second compound 0.000949 µM, first compound 0.0316 µM)?
The viability, T/C was 6.06%.

What about the viability, T/C (second compound 0.000949 µM, first compound 0.1 µM) of the same compound?
Its viability, T/C is 4.3%.

What about the viability, T/C (second compound 0.000949 µM, first compound 0.316 µM) of the same compound?
The viability, T/C was 2.12%.

What about the viability, T/C (second compound 0.000949 µM, first compound 1 µM) of the same compound?
Its viability, T/C is 1.95%.

And the viability, T/C (second compound 0.000949 µM, first compound 3.16 µM)?
Its viability, T/C is 1.97%.

What about the viability, T/C (second compound 0.000949 µM, first compound 10 µM) of the same compound?
Its viability, T/C is 1.51%.

And the viability, T/C (second compound 0.003 µM, first compound 0.0316 µM)?
Its viability, T/C is 3.74%.

What about the viability, T/C (second compound 0.003 µM, first compound 0.1 µM) of the same compound?
The viability, T/C was 2.3%.

What about the viability, T/C (second compound 0.003 µM, first compound 0.316 µM) of the same compound?
Its viability, T/C is 1.62%.

What about the viability, T/C (second compound 0.003 µM, first compound 1 µM) of the same compound?
Its viability, T/C is 1.58%.

What about the viability, T/C (second compound 0.003 µM, first compound 3.16 µM) of the same compound?
The viability, T/C was 1.33%.

And the viability, T/C (second compound 0.003 µM, first compound 10 µM)?
The viability, T/C was 1.84%.

And the viability, T/C (second compound 0.00949 µM, first compound 0.0316 µM)?
The viability, T/C was 2.32%.

What about the viability, T/C (second compound 0.00949 µM, first compound 0.1 µM) of the same compound?
Its viability, T/C is 1.6%.

What about the viability, T/C (second compound 0.00949 µM, first compound 0.316 µM) of the same compound?
The viability, T/C was 1.26%.

What about the viability, T/C (second compound 0.00949 µM, first compound 1 µM) of the same compound?
The viability, T/C was 0.84%.

What about the viability, T/C (second compound 0.00949 µM, first compound 3.16 µM) of the same compound?
The viability, T/C was 1.05%.

And the viability, T/C (second compound 0.00949 µM, first compound 10 µM)?
Its viability, T/C is 1.1%.

What about the viability, T/C (second compound 0.03 µM, first compound 0.0316 µM) of the same compound?
Its viability, T/C is 1.64%.

What about the viability, T/C (second compound 0.03 µM, first compound 0.1 µM) of the same compound?
The viability, T/C was 1.27%.

And the viability, T/C (second compound 0.03 µM, first compound 0.316 µM)?
Its viability, T/C is 1.19%.

What about the viability, T/C (second compound 0.03 µM, first compound 1 µM) of the same compound?
The viability, T/C was 0.92%.

What about the viability, T/C (second compound 0.03 µM, first compound 3.16 µM) of the same compound?
Its viability, T/C is 1.02%.

What about the viability, T/C (second compound 0.03 µM, first compound 10 µM) of the same compound?
Its viability, T/C is 0.81%.

And the viability, T/C (second compound 0.0949 µM, first compound 0.0316 µM)?
The viability, T/C was 1.33%.

And the viability, T/C (second compound 0.0949 µM, first compound 0.1 µM)?
Its viability, T/C is 1.55%.

What about the viability, T/C (second compound 0.0949 µM, first compound 0.316 µM) of the same compound?
The viability, T/C was 0.92%.

And the viability, T/C (second compound 0.0949 µM, first compound 1 µM)?
Its viability, T/C is 0.69%.

What about the viability, T/C (second compound 0.0949 µM, first compound 3.16 µM) of the same compound?
The viability, T/C was 0.98%.

And the viability, T/C (second compound 0.0949 µM, first compound 10 µM)?
Its viability, T/C is 0.76%.

What about the viability, T/C (second compound 0.3 µM, first compound 0.0316 µM) of the same compound?
Its viability, T/C is 1.37%.

What about the viability, T/C (second compound 0.3 µM, first compound 0.1 µM) of the same compound?
The viability, T/C was 1.39%.

And the viability, T/C (second compound 0.3 µM, first compound 0.316 µM)?
Its viability, T/C is 0.9%.

What about the viability, T/C (second compound 0.3 µM, first compound 1 µM) of the same compound?
The viability, T/C was 0.72%.

What about the viability, T/C (second compound 0.3 µM, first compound 3.16 µM) of the same compound?
Its viability, T/C is 0.85%.

And the viability, T/C (second compound 0.3 µM, first compound 10 µM)?
The viability, T/C was 0.72%.

Which results are given for `Cc1nc(N2CCC3(CC2)COC(C)C3N)c(CO)nc1Sc1ccnc(N)c1Cl` (centres undefined) + C=CC(=O)N1CCN(c2nc(OCC3CCCN3C)nc3c(F)c(-c4nc(N)cc(C)c4C(F)(F)F)c(Cl)cc23)C(C)C1?
IC50 (second compound 0.00316 µM): < 31.6 nM; IC50 (second compound 0.01 µM): < 31.6 nM; IC50 (second compound 0.0316 µM): < 31.6 nM; IC50 (second compound 0.1 µM): < 31.6 nM; IC50 (second compound 0.316 µM): < 31.6 nM; IC50 (second compound 1 µM): < 31.6 nM; viability, T/C (second compound 0.00316 µM, first compound 0.0316 µM): 12.4%; viability, T/C (second compound 0.00316 µM, first compound 0.1 µM): 7.94%; viability, T/C (second compound 0.00316 µM, first compound 0.316 µM): 5.15%; viability, T/C (second compound 0.00316 µM, first compound 1 µM): 4.23%; viability, T/C (second compound 0.00316 µM, first compound 3.16 µM): 3.11%; viability, T/C (second compound 0.00316 µM, first compound 10 µM): 3.36%; viability, T/C (second compound 0.01 µM, first compound 0.0316 µM): 10.9%; viability, T/C (second compound 0.01 µM, first compound 0.1 µM): 6.73%; viability, T/C (second compound 0.01 µM, first compound 0.316 µM): 5.04%; viability, T/C (second compound 0.01 µM, first compound 1 µM): 3.41%; viability, T/C (second compound 0.01 µM, first compound 3.16 µM): 3.13%; viability, T/C (second compound 0.01 µM, first compound 10 µM): 2.84%; viability, T/C (second compound 0.0316 µM, first compound 0.0316 µM): 9.73%; viability, T/C (second compound 0.0316 µM, first compound 0.1 µM): 7.78%; viability, T/C (second compound 0.0316 µM, first compound 0.316 µM): 4.91%; viability, T/C (second compound 0.0316 µM, first compound 1 µM): 3.38%; viability, T/C (second compound 0.0316 µM, first compound 3.16 µM): 3.09%; viability, T/C (second compound 0.0316 µM, first compound 10 µM): 2.69%; viability, T/C (second compound 0.1 µM, first compound 0.0316 µM): 9.46%; viability, T/C (second compound 0.1 µM, first compound 0.1 µM): 8.29%; viability, T/C (second compound 0.1 µM, first compound 0.316 µM): 4.85%; viability, T/C (second compound 0.1 µM, first compound 1 µM): 3.44%; viability, T/C (second compound 0.1 µM, first compound 3.16 µM): 3.22%; viability, T/C (second compound 0.1 µM, first compound 10 µM): 2.91%; viability, T/C (second compound 0.316 µM, first compound 0.0316 µM): 10.3%; viability, T/C (second compound 0.316 µM, first compound 0.1 µM): 7.09%; viability, T/C (second compound 0.316 µM, first compound 0.316 µM): 5.95%; viability, T/C (second compound 0.316 µM, first compound 1 µM): 4.14%; viability, T/C (second compound 0.316 µM, first compound 3.16 µM): 3.2%; viability, T/C (second compound 0.316 µM, first compound 10 µM): 3.39%; viability, T/C (second compound 1 µM, first compound 0.0316 µM): 9.98%; viability, T/C (second compound 1 µM, first compound 0.1 µM): 8.28%; viability, T/C (second compound 1 µM, first compound 0.316 µM): 6.91%; viability, T/C (second compound 1 µM, first compound 1 µM): 4.16%; viability, T/C (second compound 1 µM, first compound 3.16 µM): 3.7%; viability, T/C (second compound 1 µM, first compound 10 µM): 4.07%
